Test results taken from patent publication US20210163471A1, “PROGRANULIN MODULATORS AND METHODS OF USING THE SAME” (ARKUDA THERAPEUTICS, priority 2017, published 2021).
Like-named read-outs stand apart in the source and are kept apart here.

System: BV-2 (mouse microglia) cells
Experiment: progranulin secretion from BV-2 cells, mouse progranulin ELISA of conditioned media
Assay type: cell-based
Details: BV-2 cells, 16 hours incubation, 8-point curves starting at 10 μM
Description: BV-2 cells are split the day before plating into a 96 well plate format at approximately 80%. Cells should be plated the day before and allowed for 1 hour attachment period and for 16 hour incubation. […] Standard ELISA kits to measure PGRN are available from vendors such as Adipogen, R&D, and Biovendor.
Compound potency was determined by measuring progranulin secretion from BV-2 (mouse microglia) cells. BV-2 cells were grown in RPMI with 2 mM L-glutamine supplemented with 10% fetal bovine serum. On the day of the assay, cells were plated in 96-well plates at a density of 30,000 cells/well in RPMI (Roswell Park Memorial Institute media)/L-glutamine supplemented with 2% Fetal clone serum II (plating media) and left to adhere for 1 hour. Following attachment to the plate, media was replaced with treatment (8-point curves in half-log dilutions starting at 10 μM) in plating media and incubated for 16 hours. Secreted progranulin was measured from a 1:10 dilution of the conditioned media using the R&D Systems mouse progranulin ELISA kit (cat #DY2557) and following the manufacturer's instructions.

[1] = Mus musculus, BV-2, 16 h, assay run v1, read-out: PRGN v1 (EC50, progranulin secretion)
[2] = Mus musculus, assay run v1, read-out: PRGN v1 (EC50, progranulin secretion)
[3] = Mus musculus, BV-2, 16 h, assay run v2 (same protocol, different assay), read-out: PRGN v2 (EC50, progranulin secretion)
[4] = assay run v2 (same protocol, different assay), read-out: PRGN v2 (EC50, progranulin secretion)

Row | Structure (SMILES) | EC50 [1] [µM] | other results
1 | O=C(C[C@@H]1CN2CCC1CC2)N1CCc2ccccc2[C@@H]1c1ccc(Cl)cc1 [Compound 1049] | 0.21 | –
2 | CC1(C)[C@@H](NC(=O)N2CCc3ccccc3[C@@H]2c2ccc(Cl)cc2)C2CCN1CC2 [Compound 1050] | 0.36 | –
3 | O=C(C[C@H]1CN2CCC1CC2)N1CCc2ccccc2[C@@H]1c1ccccc1 [Compound 1051] | 1.37 | –
4 | CS(=O)(=O)c1ccc([C@H]2c3ccccc3CCN2C(=O)C[C@@H]2CN3CCC2CC3)cc1 [Compound 1052] | > 10 | –
5 | O=C(C[C@@H]1CN2CCC1CC2)N1CCc2ccccc2[C@@H]1c1ccc(F)cc1F [Compound 1053] | 0.96 | –
6 | O=C(C[C@@H]1CN2CCC1CC2)N1CCc2ccccc2[C@@H]1c1ccc(-n2cncn2)cc1 [Compound 1054] | > 10 | –
7 | O=C(C[C@@H]1CN2CCC1CC2)N1CCc2ccccc2[C@H]1c1ccc(-n2cncn2)cc1 [Compound 1055] | > 10 | –
8 | COc1ccc([C@H]2c3ccccc3CCN2C(=O)C[C@@H]2CN3CCC2CC3)cc1 [Compound 1056] | 3.72 | –
9 | COc1ccc([C@@H]2c3ccccc3CCN2C(=O)C[C@@H]2CN3CCC2CC3)cc1 [Compound 1057] | 4.2 | –
10 | O=C(C[C@@H]1CN2CCC1CC2)N1CCc2ccccc2[C@@H]1c1ccc(F)cc1 [Compound 1058] | – | EC50 [2]: 0.22 µM
11 | O=C(C[C@@H]1CN2CCC1CC2)N1CCc2ccccc2[C@H]1c1ccc(F)cc1 [Compound 1059] | – | EC50 [2]: > 10 µM
12 | COc1ccc([C@H]2c3ccccc3CCN2C(=O)C[C@@H]2CN3CCC2CC3)cc1F [Compound 1060] | > 10 | EC50 [3]: 2.07 µM
13 | COc1ccc([C@@H]2c3ccccc3CCN2C(=O)C[C@@H]2CN3CCC2CC3)cc1F [Compound 1061] | > 10 | EC50 [3]: > 10 µM
14 | O=C(C[C@@H]1CN2CCC1CC2)N1CCc2ccccc2[C@@H]1c1cccc(F)c1 [Compound 1062] | 1.1 | EC50 [3]: > 6.1 µM
15 | O=C(C[C@@H]1CN2CCC1CC2)N1CCc2ccccc2[C@H]1c1cccc(F)c1 [Compound 1063] | > 10 | EC50 [3]: > 10 µM
16 | O=C(C[C@@H]1CN2CCC1CC2)N1CCc2ccccc2[C@@H]1c1ccc(F)c(F)c1 [Compound 1064] | 2.71 | EC50 [3]: 1.83 µM
17 | O=C(C[C@@H]1CN2CCC1CC2)N1CCc2ccccc2[C@H]1c1ccc(F)c(F)c1 [Compound 1065] | > 10 | EC50 [3]: > 10 µM
18 | O=C1CCCN1c1ccc([C@H]2c3ccccc3CCN2C(=O)C[C@@H]2CN3CCC2CC3)cc1 [Compound 1066] | > 10 | EC50 [3]: > 10 µM
19 | O=C1CCCN1c1ccc([C@@H]2c3ccccc3CCN2C(=O)C[C@@H]2CN3CCC2CC3)cc1 [Compound 1067] | > 10 | EC50 [3]: > 10 µM
20 | O=C(C[C@@H]1CN2CCC1CC2)N1CCc2ccccc2[C@@H]1c1ccc(OC2CC2)cc1 [Compound 1068] | 6.14 | EC50 [3]: > 10 µM
21 | O=C(C[C@@H]1CN2CCC1CC2)N1CCc2ccccc2[C@H]1c1ccc(OC2CC2)cc1 [Compound 1069] | > 10 | EC50 [3]: > 10 µM

Row | Structure (SMILES) | EC50 [1] [µM] | other results
22 | O=C(N[C@@H]1CN2CCC1CC2)N1CCc2ccccc2[C@@H]1c1ccc(F)cc1 [Compound 1070] | – | EC50 [2]: 0.18 µM; EC50 (Mus musculus, assay run v2 (same protocol, different assay), read-out: PRGN v2 (EC50, progranulin secretion)): 0.26 µM
23 | O=C(N[C@@H]1CN2CCC1CC2)N1CCc2ccccc2[C@H]1c1ccc(F)cc1 [Compound 1071] | – | EC50 [2]: 0.41 µM
24 | CS(=O)(=O)c1ccc([C@H]2c3ccccc3CCN2C(=O)N[C@@H]2CN3CCC2CC3)cc1 [Compound 1072, (S)-1-(4-(methylsulfonyl)phenyl)-N—((S)-quinuclidin-3-yl)-3,4-dihydroisoquinoline-2(1H)-carboxamide] | > 4.41 | –
25 | COc1ccc([C@H]2c3ccccc3CCN2C(=O)N[C@@H]2CN3CCC2CC3)cc1 [Compound 1073] | 4.96 | –
26 | COc1ccc([C@@H]2c3ccccc3CCN2C(=O)N[C@@H]2CN3CCC2CC3)cc1 [Compound 1074] | > 10 | –
27 | O=C(N[C@@H]1CN2CCC1CC2)N1CCc2ccccc2[C@@H]1c1ccc(F)c(F)c1 [Compound 1075] | 0.19 | –
28 | O=C(N[C@@H]1CN2CCC1CC2)N1CCc2ccccc2[C@H]1c1ccc(F)c(F)c1 [Compound 1076] | > 10 | –
29 | O=C(N[C@@H]1CN2CCC1CC2)N1CCc2ccccc2[C@@H]1c1ccncc1 [Compound 1077] | > 10 | –
30 | O=C(N[C@@H]1CN2CCC1CC2)N1CCc2ccccc2[C@H]1c1ccncc1 [Compound 1078] | > 10 | –
31 | O=C(N[C@@H]1CN2CCC1CC2)N1CCc2ccccc2[C@@H]1c1ccc2nccn2c1 [Compound 1079] | 3.69 | –
32 | O=C(N[C@@H]1CN2CCC1CC2)N1CCc2ccccc2[C@H]1c1ccc2nccn2c1 [Compound 1080] | > 10 | –
33 | O=C(N[C@@H]1CN2CCC1CC2)N1CCc2ccccc2[C@@H]1c1ccc(Cl)cc1 [Compound 1081] | 0.25 | –
34 | O=C(N[C@@H]1CN2CCC1CC2)N1CCc2ccccc2[C@H]1c1ccc(Cl)cc1 [Compound 1082] | 1.6 | –
35 | COc1ccc([C@H]2c3ccccc3CCN2C(=O)N[C@@H]2CN3CCC2CC3)cn1 [Compound 1083] | 2.55 | –
36 | COc1ccc([C@@H]2c3ccccc3CCN2C(=O)N[C@@H]2CN3CCC2CC3)cn1 [Compound 1084] | > 3.16 | –
37 | O=C(N[C@@H]1CN2CCC1CC2)N1CCc2ccccc2[C@@H]1c1cccnc1 [Compound 1085] | 1.78 | –
38 | O=C(N[C@@H]1CN2CCC1CC2)N1CCc2ccccc2[C@H]1c1cccnc1 [Compound 1086] | 3.13 | –
39 | CC(C)Oc1ccc([C@H]2c3ccccc3CCN2C(=O)N[C@@H]2CN3CCC2CC3)cc1 [Compound 1087] | > 10 | –
40 | CC(C)Oc1ccc([C@@H]2c3ccccc3CCN2C(=O)N[C@@H]2CN3CCC2CC3)cc1 [Compound 1088] | > 10 | –
41 | CC1([C@H]2c3ccccc3CCN2C(=O)N[C@@H]2CN3CCC2CC3)COC1 [Compound 1089] | > 10 | –
42 | CC1([C@@H]2c3ccccc3CCN2C(=O)N[C@@H]2CN3CCC2CC3)COC1 [Compound 1090] | > 10 | –

Row | Structure (SMILES) | EC50 [1] [µM] | other results
43 | O=C(N[C@@H]1CN2CCC1CC2)N1CCc2ccccc2[C@@H]1c1ccc(OCc2ccccc2)cc1 [Compound 1091] | 0.34 | –
44 | O=C(N[C@@H]1CN2CCC1CC2)N1CCc2ccccc2[C@H]1c1ccc(OCc2ccccc2)cc1 [Compound 1092] | 2.21 | –
45 | O=C(N[C@@H]1CN2CCC1CC2)N1CCc2ccccc2[C@@H]1c1ccc(O)cc1 [Compound 1093] | > 3.16 | –
46 | O=C(N[C@@H]1CN2CCC1CC2)N1CCc2ccccc2[C@H]1c1ccc(O)cc1 [Compound 1094] | 1.29 | –
47 | O=C(N[C@@H]1CN2CCC1CC2)N1CCc2ccccc2[C@@H]1c1ccc(-n2ccnc2)cc1 [Compound 1095] | > 10 | –
48 | O=C(N[C@@H]1CN2CCC1CC2)N1CCc2ccccc2[C@H]1c1ccc(-n2ccnc2)cc1 [Compound 1096] | 0.45 | –
49 | O=C(N[C@@H]1CN2CCC1CC2)N1CCc2ccccc2[C@@H]1c1ccn2cncc2c1 [Compound 1097] | > 10 | –
50 | O=C(N[C@@H]1CN2CCC1CC2)N1CCc2ccccc2[C@H]1c1ccn2cncc2c1 [Compound 1098] | > 10 | –
51 | O=C(N[C@@H]1CN2CCC1CC2)N1CCc2ccccc2[C@@H]1c1ccc(-n2ccnn2)cc1 [Compound 1099] | > 10 | –
52 | O=C(N[C@@H]1CN2CCC1CC2)N1CCc2ccccc2[C@H]1c1ccc(-n2ccnn2)cc1 [Compound 1100] | > 10 | –
53 | O=C(N[C@@H]1CN2CCC1CC2)N1CCc2ccccc2[C@@H]1c1ccc(-n2cncn2)cc1 [Compound 1101] | 3.85 | –
54 | O=C(N[C@@H]1CN2CCC1CC2)N1CCc2ccccc2[C@H]1c1ccc(-n2cncn2)cc1 [Compound 1102] | > 10 | –
55 | O=C(N[C@@H]1CN2CCC1CC2)N1CCc2ccccc2[C@@H]1c1ccc(N2CCCC2)cc1 [Compound 1103] | > 10 | –
56 | O=C(N[C@@H]1CN2CCC1CC2)N1CCc2ccccc2[C@H]1c1ccc(N2CCCC2)cc1 [Compound 1104] | 5.09 | –
57 | O=C(N[C@@H]1CN2CCC1CC2)N1CCc2ccccc2[C@@H]1c1ccn2ccnc2c1 [Compound 1105] | > 10 | EC50 [3]: > 10 µM
58 | O=C(N[C@@H]1CN2CCC1CC2)N1CCc2ccccc2[C@H]1c1ccn2ccnc2c1 [Compound 1106] | > 10 | EC50 [3]: > 10 µM
59 | O=C(N[C@@H]1CN2CCC1CC2)N1CCc2ccccc2[C@@H]1c1ccc2cccn2c1 [Compound 1107] | 5.43 | EC50 [4]: 3.7 µM
60 | O=C(N[C@@H]1CN2CCC1CC2)N1CCc2ccccc2[C@@H]1c1ccc2cccn2c1 [Compound 1108] | – | EC50 (assay run v1, read-out: PRGN v1 (EC50, progranulin secretion)): 5.63 µM; EC50 [4]: > 10 µM
61 | O=C(N[C@@H]1CN2CCC1CC2)N1CCc2ccccc2[C@@H]1c1cccc(F)c1 [Compound 1109] | 1.03 | EC50 [3]: 1.44 µM
62 | O=C(N[C@@H]1CN2CCC1CC2)N1CCc2ccccc2[C@H]1c1cccc(F)c1 [Compound 1110] | 6.19 | EC50 [3]: > 10 µM
63 | O=C(N[C@@H]1CN2CCC1CC2)N1CCc2ccccc2[C@@H]1c1ccc2cncn2c1 [Compound 1111] | 9.91 | EC50 [3]: > 10 µM
